This is an account of results in ChEMBL document CHEMBL1134933, “Hydroxamate based inhibitors of adenylyl cyclase. Part 2: the effect of cyclic linkers on P-site binding” (Bioorg Med Chem Lett, 2002).

The experiment deals with Adenylate cyclase type 5 (Homo sapiens, UniProt O95622). As to the kind of experiment: Inhibitory concentration against Type V Adenyl Cyclase enzyme.
Adenylate cyclase type 5, sequence (O95622 whole entry): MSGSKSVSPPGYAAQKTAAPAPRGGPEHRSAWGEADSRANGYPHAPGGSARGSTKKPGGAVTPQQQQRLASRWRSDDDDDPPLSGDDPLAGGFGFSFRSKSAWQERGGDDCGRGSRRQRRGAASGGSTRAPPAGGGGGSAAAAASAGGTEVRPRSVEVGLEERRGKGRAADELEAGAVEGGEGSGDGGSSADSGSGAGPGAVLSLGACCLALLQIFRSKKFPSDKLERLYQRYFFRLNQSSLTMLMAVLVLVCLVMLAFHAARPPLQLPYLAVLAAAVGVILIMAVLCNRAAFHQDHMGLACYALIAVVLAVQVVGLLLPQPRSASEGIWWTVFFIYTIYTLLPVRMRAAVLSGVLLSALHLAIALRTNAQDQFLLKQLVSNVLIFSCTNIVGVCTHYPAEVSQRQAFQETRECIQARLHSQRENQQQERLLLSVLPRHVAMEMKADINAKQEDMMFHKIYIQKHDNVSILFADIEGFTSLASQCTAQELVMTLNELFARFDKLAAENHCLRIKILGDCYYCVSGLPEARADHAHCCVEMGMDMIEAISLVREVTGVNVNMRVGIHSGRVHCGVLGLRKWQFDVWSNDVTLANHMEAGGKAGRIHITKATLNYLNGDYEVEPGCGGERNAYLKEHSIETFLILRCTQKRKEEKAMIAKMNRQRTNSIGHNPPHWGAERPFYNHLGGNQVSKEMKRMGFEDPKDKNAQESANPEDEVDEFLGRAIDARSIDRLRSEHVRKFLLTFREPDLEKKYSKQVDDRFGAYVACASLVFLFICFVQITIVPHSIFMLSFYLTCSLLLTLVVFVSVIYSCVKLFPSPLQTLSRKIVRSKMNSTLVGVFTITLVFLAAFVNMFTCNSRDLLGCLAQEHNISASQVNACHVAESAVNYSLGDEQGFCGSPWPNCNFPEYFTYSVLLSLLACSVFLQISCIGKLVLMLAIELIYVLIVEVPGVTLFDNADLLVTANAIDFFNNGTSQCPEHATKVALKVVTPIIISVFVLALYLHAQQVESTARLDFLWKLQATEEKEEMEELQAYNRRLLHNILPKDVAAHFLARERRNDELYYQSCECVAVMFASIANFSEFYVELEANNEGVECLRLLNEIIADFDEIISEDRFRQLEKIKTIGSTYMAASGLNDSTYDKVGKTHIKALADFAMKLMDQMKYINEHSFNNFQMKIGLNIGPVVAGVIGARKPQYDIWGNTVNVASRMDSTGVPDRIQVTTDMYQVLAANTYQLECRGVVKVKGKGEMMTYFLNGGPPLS
Regarding `Nc1ncnc2c1ncn2[C@H]1CC[C@@H](OCC(=O)O)C1`, the IC50 is > 200 µM.
The result for `Nc1ncnc2c1ncn2[C@H]1C=C[C@@H](OCC(=O)NO)C1` (stereo in doubt; 5b) reads 13.6 µM; that for `Nc1ncnc2c1ncn2[C@@H]1CC[C@@H](OCC(=O)O)C1`, > 200 µM.
In the case of `Nc1ncnc2c1ncn2[C@@H]1C=C[C@@H](OCC(=O)O)C1` it was 72 µM; in that of `Nc1ncnc2c1ncn2[C@@H]1C=C[C@H](OCC(=O)NO)C1` (stereo in doubt; 5d), 96 µM.
In the case of `Nc1ncnc2c1ncn2[C@@H]1CC[C@H](OCC(=O)NO)C1` (stereo in doubt; 8b) it was 10.8 µM.
`Nc1ncnc2c1ncn2[C@@H]1C=C[C@H](OCC(=O)O)C1` returned an IC50 of 98 µM.
The result for `Nc1ncnc2c1ncn2[C@H]1C=C[C@H](OCC(=O)O)C1` reads > 200 µM; that for `Nc1ncnc2c1ncn2[C@H]1CC[C@@H](OCC(=O)NO)C1` (stereo in doubt; 8c), > 200 µM.
The result for `Nc1ncnc2c1ncn2[C@H]1CC[C@@H](OCC(=O)NO)C1` (stereo in doubt; 8a) reads 110 µM; that for `Nc1ncnc2c1ncn2[C@@H]1CC[C@H](OCC(=O)O)C1`, 79 µM.
The result for `Nc1ncnc2c1ncn2[C@@H]1CC[C@H](OCC(=O)NO)C1` (stereo in doubt; 8d) reads 109 µM; that for `Nc1ncnc2c1ncn2[C@H]1CC[C@H](OCC(=O)O)C1`, > 200 µM; that for `Nc1ncnc2c1ncn2[C@H]1C=C[C@@H](OCC(=O)O)C1`, 78 µM.
Consider `Nc1ncnc2c1ncn2[C@@H]1C=C[C@H](OCC(=O)NO)C1` (stereo in doubt; 5a), for which the IC50 was 102 µM.
The result for `Nc1ncnc2c1ncn2[C@H]1C=C[C@@H](OCC(=O)NO)C1` (stereo in doubt; 5c) reads 116 µM.

As usually defined, the IC50 is the concentration at which inhibition is half-maximal. A high value points to weaker potency in that assay.
